Where “and” joins values, the source holds several entries; their conditions need not be identical. Identical values can stand only once.
System: HT29 xenograft, nude mice, s.c., tumor weight T/C%
Assay: NCI In Vivo Anticancer Drug Screen. Data for tumor model HT29;CX-1 Human Adenocarcinoma (MER+) (subcutaneous) in NU/NU Swiss (nude) mice
Conditions: endpoint: optimum tumor weight change, higher = larger tumour
Description: The antitumor activity of compounds was measured in mice bearing transplantable tumors. Survival or tumor size were measured and the results are expressed as the measurement made in the treated group (T) divided by the measurement made in the vehicle treated control group (C). The tumor model used in this assay is HT29;CX-1 Human Adenocarcinoma (MER+) (subcutaneous) in NU/NU Swiss (nude) mice

[1] = dose: 3.75 mg/kg/injection, schedule: Q04DX003 (ip), vehicle: saline
[2] = dose: 12.5 mg/kg/injection, schedule: Q04DX003 (ip), vehicle: Klucel (hydroxypropylcellulose) (HPC)
[3] = dose: 25.0 mg/kg/injection, schedule: Q04DX003 (ip), vehicle: Klucel (hydroxypropylcellulose) (HPC)
[4] = dose: 50.0 mg/kg/injection, schedule: Q04DX003 (ip), vehicle: Klucel (hydroxypropylcellulose) (HPC)
[5] = dose: 50.0 mg/kg/injection, schedule: Q04DX003 (ip), vehicle: suspension in saline
[6] = dose: 100.0 mg/kg/injection, schedule: Q04DX003 (ip), vehicle: suspension in saline
[7] = dose: 200.0 mg/kg/injection, schedule: Q04DX003 (ip), vehicle: suspension in saline
[8] = dose: 400.0 mg/kg/injection, schedule: Q04DX003 (ip), vehicle: suspension in saline
[9] = dose: 800.0 mg/kg/injection, schedule: Q04DX003 (ip), vehicle: suspension in saline
[10] = dose: 100.0 mg/kg/injection, schedule: Q04DX003 (ip), vehicle: Klucel (hydroxypropylcellulose) (HPC)

For `Cc1c(N)nc(C(CC(N)=O)NCC(N)C(N)=O)nc1C(=O)NC(C(=O)NC(C)C(O)C(C)C(=O)NC(C(=O)NCCc1nc(-c2nc(C(=O)NCCCNC(C)c3ccccc3)cs2)cs1)C(C)O)C(OC1OC(CO)C(O)C(O)C1OC1OC(CO)C(O)C(OC(N)=O)C1O)c1cnc[nH]1` (stereo not given), the T/C [1] was 70 % of control.
`C1CCC2[N-]CC3CCCCC3[N-]CC3CCCCC3[N-]CC3CCCCC3[N-]CC2C1.[Cu]` (stereo not given) was tested, and the T/C (dose: 3.13 mg/kg/injection, schedule: Q04DX003 (ip), vehicle: Klucel (hydroxypropylcellulose) (HPC)) was 62 % of control, the T/C (dose: 6.25 mg/kg/injection, schedule: Q04DX003 (ip), vehicle: Klucel (hydroxypropylcellulose) (HPC)) was 90 % of control and the T/C [2] was 70 % of control. For the same molecule, the T/C [3] was 94 % of control.
`CN(C)N=Nc1ccccc1` was tested, and the T/C [3] was 64 % of control and the T/C [4] was 83 % of control.
With `CC(CN1CC(=O)NC(=O)C1)N1CC(=O)NC(=O)C1` (stereo not given) the T/C [5] was 73 % of control, the T/C [6] was 50 % of control and the T/C [7] was 57 % of control.
For `CN(C)c1nc(N(C)C)nc(N(C)C)n1`, the T/C (dose: 60.0 mg/kg/injection, schedule: Q07DX005 (ip), vehicle: Klucel (hydroxypropylcellulose) (HPC)) was 91 % of control and 114 % of control, the T/C (dose: 120.0 mg/kg/injection, schedule: Q01DX005 (ip), vehicle: Klucel (hydroxypropylcellulose) (HPC)) was 38 % of control and 47 % of control and the T/C (dose: 120.0 mg/kg/injection, schedule: Q07DX005 (ip), vehicle: Klucel (hydroxypropylcellulose) (HPC)) was 72 % of control and 78 % of control. For the same molecule, the T/C (dose: 240.0 mg/kg/injection, schedule: Q04DX005 (ip), vehicle: Klucel (hydroxypropylcellulose) (HPC)) was 27 % of control and 38 % of control and the T/C (dose: 240.0 mg/kg/injection, schedule: Q07DX005 (ip), vehicle: Klucel (hydroxypropylcellulose) (HPC)) was 37 % of control.
For `CC(C)CCCCCCCCCCCCC(=O)NCC(=O)NC1C(O)C(O)C(Nc2ncnc3nc[nH]c23)OC1C(O)CO` (stereo not given), the T/C (dose: 3.0 mg/kg/injection, schedule: Q04DX003 (ip), vehicle: suspension in saline) was 108 % of control and 110 % of control, the T/C (dose: 6.0 mg/kg/injection, schedule: Q04DX003 (ip), vehicle: suspension in saline) was 67 % of control and 79 % of control and the T/C (dose: 12.0 mg/kg/injection, schedule: Q04DX003 (ip), vehicle: suspension in saline) was 16 % of control and 40 % of control.
`O=C(NC1CCCCC1)OCc1c(COC(=O)NC2CCCCC2)c(-c2ccc(Cl)c(Cl)c2)n2c1CCC2` was tested, and the T/C [6] was 96 % of control, the T/C [7] was 90 % of control and the T/C [8] was 92 % of control. For the same molecule, the T/C [9] was 65 % of control.
For `COC(OC(CO)C(O)S(=O)(=O)O)C(O)S(=O)(=O)O` (stereo not given), the T/C [7] was 54 % of control and the T/C [8] was 80 % of control.
In the case of `Cc1c(N)nc([C@H](CC(N)=O)NC[C@H](N)C(N)=O)nc1C(=O)N[C@H](C(=O)N[C@H](C)[C@@H](O)[C@H](C)C(=O)N[C@H](C(=O)NCCc1nc(-c2nc(C(=O)NCCC[S+](C)C)cs2)cs1)[C@@H](C)O)C(OC1OC(CO)C(O)C(O)C1OC1OC(CO)C(O)C(OC(N)=O)C1O)c1cnc[nH]1` (stereo not given in full), the T/C [1] is reported as 71 % of control, the T/C (dose: 4.0 mg/kg/injection, schedule: Q04DX003 (ip), vehicle: saline) is reported as 64 % of control and the T/C (dose: 7.5 mg/kg/injection, schedule: Q04DX003 (ip), vehicle: saline) is reported as 50 % of control and 70 % of control. The T/C (dose: 7.5 mg/kg/injection, schedule: Q04DX004 (ip), vehicle: saline) was 37 % of control, the T/C (dose: 8.0 mg/kg/injection, schedule: Q04DX003 (ip), vehicle: saline) was 49 % of control and the T/C (dose: 15.0 mg/kg/injection, schedule: Q04DX004 (ip), vehicle: saline) was 26 % of control. The T/C (dose: 16.0 mg/kg/injection, schedule: Q04DX003 (ip), vehicle: saline) was 28 % of control and 33 % of control and the T/C (dose: 32.0 mg/kg/injection, schedule: Q04DX003 (ip), vehicle: saline) was 11 % of control.
In the case of `CCc1ccccc1N1CCN(C(=O)c2cc(OC)c(OC)c(OC)c2)CC1`, the T/C [3] is reported as 108 % of control, the T/C [4] is reported as 63 % of control and the T/C [10] is reported as 75 % of control. The T/C (dose: 200.0 mg/kg/injection, schedule: Q04DX003 (ip), vehicle: Klucel (hydroxypropylcellulose) (HPC)) was 82 % of control.
For `COC1C(O)CC(OC2CC(OC3CC(O[C@@H]4C(=O)c5c(cc6cc(OC7CC(OC8CC(O)C(O)C(C)O8)C(O)C(C)O7)c(C)c(O)c6c5O)C[C@H]4[C@H](OC)C(=O)[C@@H](O)[C@@H](C)O)OC(C)C3O)OC(C)C2O)OC1C` (stereo not given in full), the T/C (dose: 1.5 mg/kg/injection, schedule: Q04DX003 (ip), vehicle: saline) was 52 % of control.
In the case of `NC(Cc1ccc(N(CCCl)CCCl)cc1)C(=O)O` (stereo not given), the T/C (dose: 5.0 mg/kg/injection, schedule: Q04DX003 (ip), vehicle: Klucel (hydroxypropylcellulose) (HPC)) is reported as 73 % of control.
In the case of `c1cc2n(n1)CCN2`, the T/C (dose: 50.0 mg/kg/injection, schedule: Q04DX003 (ip), vehicle: saline) is reported as 42 % of control, the T/C (dose: 100.0 mg/kg/injection, schedule: Q04DX003 (ip), vehicle: saline) is reported as 50 % of control and the T/C (dose: 200.0 mg/kg/injection, schedule: Q04DX003 (ip), vehicle: saline) is reported as 63 % of control. The T/C (dose: 400.0 mg/kg/injection, schedule: Q04DX003 (ip), vehicle: saline) was 41 % of control.
With `COc1cccc2c1C(=O)c1c(O)c3c(c(O)c1C2=O)C[C@@](O)(C(=O)CO)C[C@@H]3OC1CC(N)CC(C)O1` (stereo not given in full) the T/C (dose: 0.37 mg/kg/injection, schedule: Q04DX003 (ip), vehicle: water) was 63 % of control, the T/C (dose: 0.75 mg/kg/injection, schedule: Q04DX003 (ip), vehicle: water) was 54 % of control and the T/C (dose: 1.5 mg/kg/injection, schedule: Q04DX003 (ip), vehicle: water) was 39 % of control.
For `CCOC(=O)Nc1cc2c(c(N)n1)N=C(CN(C)c1ccccc1)CN2`, the T/C [2] was 74 % of control, the T/C [3] was 116 % of control and the T/C [4] was 71 % of control. For the same molecule, the T/C [10] was 90 % of control.
`C[C@]12CC[C@@H]3c4ccc(OC(=O)Cc5ccc(N(CCCl)CCCl)cc5)cc4CC[C@H]3[C@@H]1CC[C@@H]2OC(=O)Cc1ccc(N(CCCl)CCCl)cc1` was tested, and the T/C (dose: 150.0 mg/kg/injection, schedule: Q04DX003 (ip), vehicle: saline with Tween-80) was 60 % of control and the T/C (dose: 1200.0 mg/kg/injection, schedule: Q04DX003 (ip), vehicle: saline with Tween-80) was 53 % of control and 66 % of control.
For `O=c1n[n+]([O-])ccn1C1OC(CO)C(O)C1O` (stereo not given), the T/C [6] was 75 % of control, the T/C [7] was 71 % of control and the T/C [8] was 68 % of control. For the same molecule, the T/C [9] was 82 % of control.
In the case of `Cc1c(N)nc(C(CC(N)=O)NCC(N)C(N)=O)nc1C(=O)NC(C(=O)NC(C)C(O)CC(=O)NC(C(=O)NC(OC1OC(C)C(N)C(O)C1O)C(O)c1nc(-c2nc(C(=O)NCCCC(N)CC(=O)NCCCNCCCCN)cs2)cs1)C(C)O)C(OC1OC(CO)C(O)C(O)C1OC1OC(CO)C(O)C(OC(N)=O)C1O)c1cnc[nH]1` (stereo not given), the T/C (dose: 0.5 mg/kg/injection, schedule: Q04DX003 (ip), vehicle: saline) is reported as 92 % of control, the T/C (dose: 1.0 mg/kg/injection, schedule: Q04DX003 (ip), vehicle: saline) is reported as 45 % of control and the T/C (dose: 2.0 mg/kg/injection, schedule: Q04DX003 (ip), vehicle: saline) is reported as 39 % of control.
In the case of `COc1cc([C@@H]2c3cc4c(c(O)c3C[C@H]3COC(=O)[C@@H]32)OCO4)cc(OC)c1OC`, the T/C (dose: 2.5 mg/kg/injection, schedule: Q04DX003 (ip), vehicle: saline) is reported as 83 % of control, the T/C (dose: 5.0 mg/kg/injection, schedule: Q04DX003 (ip), vehicle: saline) is reported as 114 % of control and the T/C (dose: 10.0 mg/kg/injection, schedule: Q04DX003 (ip), vehicle: saline) is reported as 52 % of control.
With `CCN(CC)CCCC(C)Nc1c2ccc(Cl)cc2nc2ccc(OC)cc12` (stereo not given) the T/C (dose: 50.0 mg/kg/injection, schedule: Q04DX003 (ip), vehicle: saline with Tween-80) was 89 % of control and the T/C (dose: 200.0 mg/kg/injection, schedule: Q04DX003 (ip), vehicle: saline with Tween-80) was 91 % of control.
For `CC[C@](O)(C(=O)O)c1cc2n(c(=O)c1CO)Cc1cc3ccccc3nc1-2`, the T/C (dose: 9.0 mg/kg/injection, schedule: Q04DX003 (ip), vehicle: saline) was 36 % of control.
`O=P1(NCCCl)OCCCN1CCCl` (stereo not given) was tested, and the T/C (dose: 25.0 mg/kg/injection, schedule: Q04DX003 (ip), vehicle: suspension in saline) was 78 % of control and the T/C [5] was 108 % of control.
With `CN1N=C(N)c2cn(C3OC(COP(=O)(O)O)C(O)C3O)c3ncnc1c23` (stereo not given) the T/C (dose: 50.0 mg/kg/injection, schedule: Q04DX003 (ip), vehicle: water) was 121 % of control.
For `COc1cc2c[n+](C)c3c4cc5c(cc4ccc3c2cc1OC)OCO5`, the T/C (dose: 20.0 mg/kg/injection, schedule: Q04DX003 (ip), vehicle: saline with Tween-80) was 111 % of control, the T/C (dose: 40.0 mg/kg/injection, schedule: Q04DX003 (ip), vehicle: saline with Tween-80) was 124 % of control and the T/C (dose: 80.0 mg/kg/injection, schedule: Q04DX003 (ip), vehicle: saline with Tween-80) was 50 % of control.

From PubChem BioAssay AID202 (DTP/NCI, 2004)
